Drawing on PubChem BioAssay (NCI), this text covers TGI and GI50 for 15 compounds.

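The compound was tested at five concentrations on cells cultured in 96-well plates, with a 48-hour exposure period. GI50 = concentration required for 50% inhibition of growth. The concentration for full growth arrest is given as TGI.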

Some test systems named below: A498 renal; CCRF-CEM leukemia; EKVX NSCLC; SF-539 CNS; SK-OV-3 ovarian; UACC-257 melanoma; OVCAR-5 ovarian; TK-10 renal; MDA-MB-231 breast; HS 578T breast.
Holding throughout (assay): growth of human tumour cells (NCI), 48 h

`O=C1NC(=O)C(C(=O)C(=O)Nc2ccc(Br)cc2)C(=O)N1`: the TGI with A498 renal, with CCRF-CEM leukemia, in the test on EKVX NSCLC, in the test on SF-539 CNS, in the test on SK-OV-3 ovarian and in the test on UACC-257 melanoma was over 100 µM each time.
`CC1=CC=NN2C(=O)[C@H](C)C2C1` (some centres not stated): the TGI in the test with A498 renal, in the test on CCRF-CEM leukemia, with EKVX NSCLC, in the test on OVCAR-5 ovarian, with SF-539 CNS and with SK-OV-3 ovarian was over 100 µM each time. In addition, the TGI in the test on TK-10 renal and with UACC-257 melanoma was over 100 µM each time.
In the case of `Cn1ncc(=S)[nH]c1=S`, the TGI in the test with A498 renal, in the test on CCRF-CEM leukemia, with EKVX NSCLC, in the test with OVCAR-5 ovarian, in the test with SF-539 CNS and with SK-OV-3 ovarian was over 100 µM in each case. Also, the TGI in the test with TK-10 renal was over 100 µM.
In the case of `CC(Cn1c2c3ccccc3ccc2c2oc(=O)c3ccccc3c21)N(C)C` (configuration not stated), the TGI in the test on CCRF-CEM leukemia, in the test on EKVX NSCLC, in the test with OVCAR-5 ovarian, with SF-539 CNS, with TK-10 renal and in the test with UACC-257 melanoma was over 100 µM throughout.
As to `COC(=O)c1c[nH]cc1CCc1c[nH]cc1C(=O)OC`, the TGI in the test with A498 renal, in the test on CCRF-CEM leukemia, in the test on EKVX NSCLC, in the test on OVCAR-5 ovarian, in the test with SF-539 CNS and in the test with SK-OV-3 ovarian was over 100 µM each time. Besides, the TGI with TK-10 renal and in the test on UACC-257 melanoma was over 100 µM each time.
For `Nc1ccccc1C#CC#Cc1ccccc1N`, the GI50 in the test with MDA-MB-231 breast is 10.9 µM; in the test with SK-OV-3 ovarian, 58 µM; in the test with TK-10 renal, 12.5 µM; in the test with UACC-257 melanoma, 4.56 µM. In addition, the TGI in the test with MDA-MB-231 breast is 24.5 µM; with SK-OV-3 ovarian, over 100 µM; with TK-10 renal, 32.9 µM; in the test on UACC-257 melanoma, 24.5 µM.
With `O=C(Cc1nc2ccccc2s1)C(=O)Nc1ccc(Cl)cc1`, the TGI in the test on A498 renal, in the test on EKVX NSCLC, in the test on OVCAR-5 ovarian, in the test with SF-539 CNS, in the test on SK-OV-3 ovarian and with TK-10 renal was over 100 µM each time. In the test on UACC-257 melanoma, this compound came in with a TGI of over 100 µM.
`COc1ccc(OCC(=O)O)c2c1CCC(C(C)C)C2=O` (configuration not stated): the TGI with A498 renal, in the test with CCRF-CEM leukemia, in the test on EKVX NSCLC, with OVCAR-5 ovarian, with SF-539 CNS and in the test with SK-OV-3 ovarian was over 100 µM in each case. The TGI with TK-10 renal and in the test on UACC-257 melanoma was over 100 µM throughout.
With `CCOC(=N)CC(=O)Nc1ccc(Cl)cc1`, the TGI in the test with A498 renal, in the test with CCRF-CEM leukemia, with EKVX NSCLC, in the test with OVCAR-5 ovarian, in the test on SF-539 CNS and in the test on SK-OV-3 ovarian was over 100 µM in each case. The TGI in the test with TK-10 renal and in the test on UACC-257 melanoma was over 100 µM each time.
As to `O=C(CCN1CCN(c2cccc(Cl)c2)CC1)N1CCc2c([nH]c3ccccc23)C1c1cccnc1` (configuration not stated), the GI50 with A498 renal was 5.56 µM; in the test with CCRF-CEM leukemia, 6.62 µM; with OVCAR-5 ovarian, 5.75 µM; in the test with SK-OV-3 ovarian, 13.4 µM; in the test with TK-10 renal it was 2.53 µM; in the test on UACC-257 melanoma it was 6.43 µM. For the same compound, the TGI in the test with A498 renal is 20.2 µM; with CCRF-CEM leukemia, over 100 µM; with EKVX NSCLC, 26.3 µM; in the test on OVCAR-5 ovarian it was 23.3 µM; with SF-539 CNS, 31.2 µM; in the test on SK-OV-3 ovarian, 28.8 µM. For the same compound, the figures for the TGI in the test with TK-10 renal and with UACC-257 melanoma were 10.9 µM and 21.3 µM, respectively.
With `CCCCCCCCCCCCN1C(C)=CS/C1=C\C=C\c1scc(C)[n+]1CCCCCCCCCCCC`, the GI50 was 0.822 µM in the test with A498 renal; 1.98 µM with CCRF-CEM leukemia; 1.77 µM in the test on HS 578T breast; 2.3 µM with OVCAR-5 ovarian; 2.02 µM in the test on SF-539 CNS; 2.74 µM in the test with SK-OV-3 ovarian. Also, the GI50 is 0.934 µM with TK-10 renal and 1.72 µM in the test on UACC-257 melanoma. Besides, the TGI in the test on A498 renal is 4.09 µM; with CCRF-CEM leukemia it was over 100 µM; in the test on HS 578T breast, 6.62 µM; in the test on OVCAR-5 ovarian it was 9.43 µM; with SF-539 CNS, 8.69 µM; in the test on SK-OV-3 ovarian, 22.9 µM. Also, the values for the TGI in the test on TK-10 renal and with UACC-257 melanoma were 3.9 µM and 5.68 µM, respectively.
With `O=C(O)c1ccc(S(=O)(=O)c2ccccc2)c([N+](=O)[O-])c1`, the TGI in the test with A498 renal, with CCRF-CEM leukemia, in the test with EKVX NSCLC, with OVCAR-5 ovarian, in the test on SF-539 CNS and in the test on SK-OV-3 ovarian was over 100 µM throughout. In addition, the TGI in the test with TK-10 renal and with UACC-257 melanoma was over 100 µM each time.
Regarding `COC(=O)C1(C)C=C(Nc2ccccc2)C(=O)N1c1ccccc1` (configuration not stated), the TGI in the test on CCRF-CEM leukemia, in the test on EKVX NSCLC, in the test on OVCAR-5 ovarian, with SF-539 CNS, with SK-OV-3 ovarian and with TK-10 renal was over 100 µM throughout. The compound further returned a TGI in the test with UACC-257 melanoma of over 100 µM.
`COc1ccc2[nH]cc(CCNC(C)=O)c2c1`: the TGI in the test with A498 renal, in the test with CCRF-CEM leukemia, in the test on EKVX NSCLC, with OVCAR-5 ovarian, with SF-539 CNS and in the test with SK-OV-3 ovarian was over 100 µM throughout. The TGI in the test on TK-10 renal and with UACC-257 melanoma was over 100 µM in each case.
Turning to `C/C(CN1C(=O)c2ccccc2C1=O)=N\NS(=O)(=O)c1cccc([N+](=O)[O-])c1`, the TGI with A498 renal, in the test with CCRF-CEM leukemia, in the test with EKVX NSCLC, with OVCAR-5 ovarian, with SF-539 CNS and in the test with SK-OV-3 ovarian was over 100 µM in each case. The TGI with TK-10 renal and with UACC-257 melanoma was over 100 µM throughout.
